Experimental data reported in PubChem BioAssay (NCI).
Where “and” joins values, the source holds several entries; their conditions need not be identical. Equal values may be shown once.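 These data come from cells grown in 96-well plates and exposed to compound for 48 hours at five concentrations. Abbreviation: GI50, concentration required for 50% inhibition of growth. TGI marks complete inhibition of growth.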

What was measured:
Test in all cases: inhibition of tumour cell growth, NCI panel, 48 h
ACHN renal = system: ACHN renal
KM12 colon = system: KM12 colon
SW-620 colon = system: SW-620 colon
IGROV1 ovarian = system: IGROV1 ovarian
OVCAR-5 ovarian = system: OVCAR-5 ovarian
DU-145 prostate = system: DU-145 prostate
CAKI-1 renal = system: CAKI-1 renal
U251 CNS = system: U251 CNS
OVCAR-3 ovarian = system: OVCAR-3 ovarian
COLO 205 colon = system: COLO 205 colon
MDA-MB-231 breast = system: MDA-MB-231 breast
SK-MEL-5 melanoma = system: SK-MEL-5 melanoma
SK-MEL-28 melanoma = system: SK-MEL-28 melanoma
PC-3 prostate = system: PC-3 prostate
RXF 393 renal = system: RXF 393 renal
NCI-H226 lung = system: NCI-H226 lung
HT29 colon = system: HT29 colon
OVCAR-8 ovarian = system: OVCAR-8 ovarian
SF-268 CNS = system: SF-268 CNS
SNB-19 CNS = system: SNB-19 CNS
HOP-92 NSCLC = system: HOP-92 NSCLC
UO-31 renal = system: UO-31 renal
TK-10 renal = system: TK-10 renal
SF-539 CNS = system: SF-539 CNS
SN12C renal = system: SN12C renal
EKVX NSCLC = system: EKVX NSCLC
MDA-MB-435 = system: MDA-MB-435
A549 NSCLC = system: A549 NSCLC
SNB-75 CNS = system: SNB-75 CNS
SF-295 CNS = system: SF-295 CNS
NCI/ADR-RES ovarian = system: NCI/ADR-RES ovarian
NCI-H23 lung = system: NCI-H23 lung
HCT-116 colon = system: HCT-116 colon
HCT-15 colon = system: HCT-15 colon
OVCAR-4 ovarian = system: OVCAR-4 ovarian
M14 melanoma = system: M14 melanoma
BT-549 breast = system: BT-549 breast
UACC-257 melanoma = system: UACC-257 melanoma
A498 renal = system: A498 renal
SK-OV-3 ovarian = system: SK-OV-3 ovarian
UACC-62 melanoma = system: UACC-62 melanoma
NCI-H460 lung = system: NCI-H460 lung
786-0 renal = system: 786-0 renal
HL-60(TB) leukemia = system: HL-60(TB) leukemia
MALME-3M melanoma = system: MALME-3M melanoma
CCRF-CEM leukemia = system: CCRF-CEM leukemia
RPMI-8226 leukemia = system: RPMI-8226 leukemia
HCC-2998 colon = system: HCC-2998 colon
NCI-H522 lung = system: NCI-H522 lung
SK-MEL-2 melanoma = system: SK-MEL-2 melanoma

CCC1(c2ccc(N3C(=O)c4ccccc4C3=O)cc2)CCC(=O)NC1=O (centres undefined)
TGI (ACHN renal): > 10 µM
TGI (KM12 colon): > 10 µM
TGI (SW-620 colon): > 10 µM
TGI (IGROV1 ovarian): > 10 µM
TGI (OVCAR-5 ovarian): > 10 µM
TGI (DU-145 prostate): > 10 µM
TGI (CAKI-1 renal): > 10 µM
TGI (U251 CNS): > 10 µM
TGI (OVCAR-3 ovarian): > 10 µM
TGI (COLO 205 colon): > 10 µM
TGI (MDA-MB-231 breast): > 10 µM
TGI (SK-MEL-5 melanoma): > 10 µM
TGI (SK-MEL-28 melanoma): > 10 µM
TGI (PC-3 prostate): > 10 µM
TGI (RXF 393 renal): > 10 µM
TGI (NCI-H226 lung): > 10 µM
TGI (HT29 colon): > 10 µM
TGI (OVCAR-8 ovarian): > 10 µM
TGI (SF-268 CNS): > 10 µM
TGI (SNB-19 CNS): > 10 µM
TGI (HOP-92 NSCLC): > 10 µM
TGI (UO-31 renal): > 10 µM
TGI (TK-10 renal): > 10 µM
TGI (SF-539 CNS): > 10 µM
TGI (SN12C renal): > 10 µM
TGI (EKVX NSCLC): > 10 µM
TGI (MDA-MB-435): > 10 µM
TGI (A549 NSCLC): > 10 µM
TGI (SNB-75 CNS): > 10 µM
TGI (SF-295 CNS): > 10 µM
TGI (NCI/ADR-RES ovarian): > 10 µM
TGI (NCI-H23 lung): > 10 µM
TGI (HCT-116 colon): > 10 µM
TGI (HCT-15 colon): > 10 µM
TGI (OVCAR-4 ovarian): > 10 µM
TGI (M14 melanoma): > 10 µM

COc1ccc(CC2C(=O)NC(C)C(=O)N(C)C3C(=O)N(C)C(Cc4ccc(O)c(c4)Oc4ccc(cc4)C3O)C(=O)NC(C)C(=O)NC(C)C(=O)N2C)cc1 (centres undefined) (tested in a mixture with another compound)
TGI (BT-549 breast): 0.00992 µM
TGI (UACC-257 melanoma): 0.101 µM and 0.0278 µM
TGI (NCI-H226 lung): 0.117 µM
TGI (HOP-92 NSCLC): 0.0372 µM
TGI (NCI-H23 lung): 0.051 µM

C=C(CNCCc1ccc(O)cc1)[C@@H]1CC[C@]2(CO)CC[C@]3(C)[C@H](CC[C@@H]4[C@@]5(C)CCC(NCCc6ccc(O)cc6)C(C)(C)[C@@H]5CC[C@]43C)[C@@H]12 (some centres undefined)
GI50 (BT-549 breast): 1.59 µM
TGI (BT-549 breast): 3.06 µM
GI50 (A498 renal): 1.4 µM
TGI (A498 renal): 2.86 µM
GI50 (SW-620 colon): 0.178 µM
TGI (SW-620 colon): 0.352 µM
GI50 (DU-145 prostate): 1.54 µM
TGI (DU-145 prostate): 3 µM
GI50 (CAKI-1 renal): 1.49 µM
TGI (CAKI-1 renal): 2.85 µM
GI50 (SK-OV-3 ovarian): 1.77 µM
TGI (SK-OV-3 ovarian): 3.26 µM
GI50 (PC-3 prostate): 0.884 µM
TGI (PC-3 prostate): 2.35 µM
GI50 (UACC-62 melanoma): 1.72 µM
TGI (UACC-62 melanoma): 3.26 µM
GI50 (OVCAR-8 ovarian): 1.61 µM
TGI (OVCAR-8 ovarian): 4.27 µM
GI50 (HOP-92 NSCLC): 0.667 µM
TGI (HOP-92 NSCLC): 2.18 µM
GI50 (UO-31 renal): 1.16 µM
TGI (UO-31 renal): 2.44 µM
GI50 (SF-539 CNS): 1.31 µM
TGI (SF-539 CNS): 2.6 µM
GI50 (MDA-MB-435): 0.873 µM
TGI (MDA-MB-435): 2.24 µM
GI50 (NCI-H460 lung): 0.191 µM
TGI (NCI-H460 lung): 0.362 µM
GI50 (SNB-75 CNS): 1.25 µM
TGI (SNB-75 CNS): 2.54 µM
GI50 (OVCAR-4 ovarian): 1.35 µM
TGI (OVCAR-4 ovarian): 2.7 µM

O=c1c2cc(F)ccc2sc2c(Nc3ccncc3)nc3ccccc3c12
GI50 (BT-549 breast): 3.31 µM
TGI (BT-549 breast): 16.7 µM
GI50 (786-0 renal): 1.76 µM
TGI (786-0 renal): 3.39 µM
GI50 (ACHN renal): 1.55 µM
TGI (ACHN renal): 3.13 µM
GI50 (A498 renal): 1.04 µM
TGI (A498 renal): 2.64 µM
GI50 (KM12 colon): 1.87 µM
TGI (KM12 colon): 3.93 µM
GI50 (SW-620 colon): 1.5 µM
TGI (SW-620 colon): 3.16 µM
GI50 (IGROV1 ovarian): 1.55 µM
TGI (IGROV1 ovarian): 5.55 µM
GI50 (OVCAR-5 ovarian): 1.66 µM
TGI (OVCAR-5 ovarian): 3.11 µM
GI50 (DU-145 prostate): 2.49 µM
TGI (DU-145 prostate): 6.27 µM
GI50 (HL-60(TB) leukemia): 13.7 µM
TGI (HL-60(TB) leukemia): 39.8 µM
GI50 (CAKI-1 renal): 1.53 µM
TGI (CAKI-1 renal): 3.84 µM
GI50 (UACC-257 melanoma): 2.34 µM
TGI (UACC-257 melanoma): 6.17 µM
GI50 (OVCAR-3 ovarian): 1.84 µM
TGI (OVCAR-3 ovarian): 3.88 µM
GI50 (COLO 205 colon): 1.7 µM
TGI (COLO 205 colon): 3.94 µM
GI50 (MDA-MB-231 breast): 1.3 µM
TGI (MDA-MB-231 breast): 2.67 µM
GI50 (SK-MEL-5 melanoma): 7.29 µM
TGI (SK-MEL-5 melanoma): 28.2 µM
GI50 (MALME-3M melanoma): 1.74 µM
TGI (MALME-3M melanoma): 3.42 µM
GI50 (SK-OV-3 ovarian): 14.2 µM
TGI (SK-OV-3 ovarian): 34.4 µM
GI50 (SK-MEL-28 melanoma): 1.99 µM
TGI (SK-MEL-28 melanoma): 3.84 µM
GI50 (CCRF-CEM leukemia): 0.86 µM
TGI (CCRF-CEM leukemia): 2.92 µM
GI50 (RXF 393 renal): 1.7 µM
TGI (RXF 393 renal): 3.41 µM
GI50 (NCI-H226 lung): 14.5 µM
TGI (NCI-H226 lung): 47.8 µM
GI50 (UACC-62 melanoma): 1.79 µM
TGI (UACC-62 melanoma): 3.74 µM
GI50 (HT29 colon): 1.88 µM
TGI (HT29 colon): 3.73 µM
GI50 (OVCAR-8 ovarian): 1.78 µM
TGI (OVCAR-8 ovarian): 4.25 µM
GI50 (SF-268 CNS): 1.91 µM
TGI (SF-268 CNS): 4.56 µM
GI50 (RPMI-8226 leukemia): 1.75 µM
TGI (RPMI-8226 leukemia): 4.43 µM
GI50 (HCC-2998 colon): 2.67 µM
TGI (HCC-2998 colon): 7.97 µM
GI50 (UO-31 renal): 1.11 µM
TGI (UO-31 renal): 2.5 µM
GI50 (SF-539 CNS): 1.72 µM
TGI (SF-539 CNS): 3.29 µM
GI50 (SN12C renal): 2.16 µM
TGI (SN12C renal): 5.93 µM
GI50 (MDA-MB-435): 1.9 µM
TGI (MDA-MB-435): 3.67 µM
GI50 (NCI-H460 lung): 1.77 µM
TGI (NCI-H460 lung): 3.62 µM
GI50 (SNB-75 CNS): 1.1 µM
TGI (SNB-75 CNS): 3.64 µM
GI50 (SF-295 CNS): 4.12 µM
TGI (SF-295 CNS): 26.7 µM
GI50 (NCI/ADR-RES ovarian): 1.94 µM
TGI (NCI/ADR-RES ovarian): 4.47 µM
GI50 (NCI-H522 lung): 1.91 µM
TGI (NCI-H522 lung): 4.82 µM
GI50 (NCI-H23 lung): 1.71 µM
TGI (NCI-H23 lung): 3.8 µM
GI50 (HCT-116 colon): 1.45 µM
TGI (HCT-116 colon): 3.13 µM
GI50 (HCT-15 colon): 1.65 µM
TGI (HCT-15 colon): 3.32 µM
GI50 (SK-MEL-2 melanoma): 11.2 µM
TGI (SK-MEL-2 melanoma): 26.5 µM
GI50 (OVCAR-4 ovarian): 1.7 µM
TGI (OVCAR-4 ovarian): 3.53 µM
GI50 (M14 melanoma): 1.57 µM
TGI (M14 melanoma): 3.01 µM
